Measured values: PubChem BioAssay (NCI)
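48-hour exposure; five concentrations; linearly interpolated endpoints. At the GI50, growth is halved. TGI: total growth inhibition.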 Where a SMILES comes first, the peptide text is derived from it. [ ]: non-standard residue; d: D form. The star is where a group is joined. Phe(4-NO2) = N[CH](Cc1ccc([N+](=O)[O-])cc1)C(=O)O; Boc = CC(C)(C)OC(=O)*

What was measured:
Experiment in all cases: NCI-60 cell line screen, 48 h
[1] = test system: HOP-62 NSCLC
[2] = test system: COLO 205 colon
[3] = test system: SF-268 CNS
[4] = test system: IGROV1 ovarian
[5] = test system: SNB-75 CNS
[6] = test system: MCF7 breast
[7] = test system: SN12C renal
[8] = test system: A549 NSCLC
[9] = test system: CAKI-1 renal
[10] = test system: RXF 393 renal

## Oc1cccc2c(Br)ccnc12
[1]
  TGI: > 69 µM
[2]
  TGI: 27.3 µM
[3]
  TGI: 14.2 µM
[4]
  TGI: 9.41 µM
[5]
  TGI: 66.2 µM
[6]
  TGI: > 31.6 µM
[7]
  TGI: 21.7 µM
[8]
  TGI: > 100 µM
[9]
  TGI: > 100 µM
[10]
  TGI: 32.4 µM

## CCOC(=O)CCC(NC(=O)C(Cc1ccc([N+](=O)[O-])cc1)NC(=O)OC(C)(C)C)C(=O)NC(CCC(=O)OCC)C(=O)OCC (stereo unspecified) (Boc-[Phe(4-NO2)]-Glu(OEt)-Glu(OEt)-OEt; configuration not given here)
[1]
  TGI: 67.4 µM
[2]
  TGI: 57.1 µM
[4]
  TGI: 38.3 µM
[5]
  TGI: 31.5 µM
[6]
  TGI: > 100 µM
[7]
  TGI: 49.7 µM
[8]
  TGI: > 100 µM
[10]
  TGI: 30.2 µM

## O=C1CCCCC/C1=C\c1cccc(F)c1
[1]
  TGI: > 100 µM
[2]
  TGI: > 100 µM
[3]
  TGI: > 100 µM
[4]
  TGI: > 100 µM
[5]
  TGI: > 100 µM
[6]
  TGI: > 100 µM
[7]
  TGI: > 100 µM
[8]
  TGI: > 100 µM
[9]
  TGI: > 100 µM
[10]
  TGI: > 100 µM

## COc1cc(S(=O)(=O)Nc2ccc(-c3csc(N4C(=O)C(Cl)C4c4ccccc4O)n3)cc2)ccc1Cl (stereo unspecified)
[1]
  TGI: > 100 µM
[2]
  TGI: 90.1 µM
[3]
  TGI: > 100 µM
[4]
  TGI: 56.3 µM
[5]
  TGI: > 100 µM
[6]
  TGI: 54.2 µM
[7]
  TGI: > 100 µM
[8]
  TGI: > 100 µM
[9]
  TGI: > 100 µM
[10]
  TGI: 52.6 µM

## O=[N+]([O-])c1ccc(N2N=C(c3c(O)ccc4ccccc34)CC2c2ccc(Cl)cc2)c([N+](=O)[O-])c1 (stereo unspecified)
[1]
  TGI: 61.6 µM
[2]
  TGI: 29.5 µM
[3]
  TGI: > 100 µM
[4]
  TGI: > 100 µM
[5]
  TGI: > 100 µM
[6]
  TGI: > 100 µM
[7]
  TGI: > 100 µM
[8]
  TGI: 88.1 µM
[9]
  TGI: 93.2 µM
[10]
  TGI: 73.5 µM

## O=C(O)Cn1c2c(c3c1-c1ccccc1C3=O)C(=O)CCC2
[1]
  GI50: > 100 µM
  TGI: > 100 µM
[2]
  GI50: > 100 µM
  TGI: > 100 µM
[3]
  GI50: > 100 µM
  TGI: > 100 µM
[4]
  GI50: > 100 µM
  TGI: > 100 µM
[5]
  GI50: > 100 µM
  TGI: > 100 µM
[6]
  GI50: > 100 µM
  TGI: > 100 µM
[7]
  GI50: > 100 µM
  TGI: > 100 µM
[8]
  GI50: > 100 µM
  TGI: > 100 µM
[9]
  GI50: > 100 µM
  TGI: > 100 µM
[10]
  GI50: > 100 µM
  TGI: > 100 µM

## O=c1[nH]nc(-c2ccccc2)c2[nH]c3c(c12)Cc1ccccc1-3
[1]
  TGI: > 100 µM
[2]
  TGI: > 34.4 µM
[3]
  TGI: > 100 µM
[4]
  TGI: > 100 µM
[5]
  TGI: > 43.3 µM
[6]
  TGI: > 100 µM
[7]
  TGI: > 100 µM
[8]
  TGI: > 100 µM
[9]
  TGI: > 100 µM
[10]
  TGI: > 42.2 µM

## COc1cccc(C(C#N)NNC(=O)c2c(Cl)c(Cl)c(Cl)c(Cl)c2-c2nc3ccc(C(=O)c4ccccc4)cc3[nH]2)c1O (stereo unspecified)
[1]
  TGI: 8.59 µM
[2]
  TGI: > 100 µM
[4]
  TGI: > 100 µM
[5]
  TGI: 7.46 µM
[6]
  TGI: > 100 µM
[7]
  TGI: 7.79 µM
[8]
  TGI: > 100 µM
[9]
  TGI: > 100 µM
[10]
  TGI: 9.03 µM

## O=C1C=CC2(O[C@H](C3CCCCC3)[C@@H](C3CCCCC3)O2)C(SC(=O)c2ccccc2)C1 (stereo partly specified)
[1]
  TGI: 9.57 µM
[2]
  TGI: 15 µM
[3]
  TGI: 5.89 µM
[4]
  TGI: 9.1 µM
[5]
  TGI: 14.4 µM
[6]
  TGI: 5.08 µM
[7]
  TGI: 6.58 µM
[8]
  TGI: 45.8 µM
[10]
  TGI: 2.49 µM

## Cc1cc(N2CCCCC2)nc2ccc(Cc3ccc4nc(N5CCCCC5)cc(C)c4c3)cc12
[1]
  TGI: > 100 µM
[2]
  TGI: > 100 µM
[3]
  TGI: > 100 µM
[4]
  TGI: > 100 µM
[5]
  TGI: > 100 µM
[6]
  TGI: > 100 µM
[7]
  TGI: > 100 µM
[8]
  TGI: > 100 µM
[9]
  TGI: > 100 µM
[10]
  TGI: > 100 µM
